Laboratory results: PMC12147761 (Journal of medicinal chemistry, 2025)

Columns and labels:
[1] = test system: VCaP prostate cancer cells; test: Cell proliferation assay (CellTiter-Glo), VCaP; format: cell-based, human; details: cell growth inhibition, 5 days, CellTiter-Glo
Procedure: The kinase inhibitory activities of the compounds against CDK12 and CDK13 were preliminarily evaluated using the ADP-Glo kinase assay. Cell growth inhibition was determined in VCaP prostate cancer cells, which were characterized as being sensitive to CDK12/13 inhibition.[14]
(§1) Cells were seeded in 96-well plates and incubated at 37 °C and 5% CO2. After overnight incubation, serial dilutions of tested compounds were added to the plate. The assay was tested with Cell Titer-Glo (Promega) after 5 days. The luminescence signal was detected by the Infinite M1000 Pro plate reader (Tecan), and the IC50 values were calculated by GraphPad Prism 10.

CDK9/CycT1 = target: T1, CDK9/CycT1 (Homo sapiens, UniProt P50750); test: CDK family panel, ADP-Glo; format: biochemical
T1 construct: ICE Bioscience Inc. (assay service)
Procedure: (§3) All the kinase activity were performed using an ADP-Glo kinase assay by ICE Bioscience Inc. (Beijing, China).

CDK9/CycK = target: T2, CDK9/CycK (Homo sapiens, UniProt P50750); test: CDK family panel, ADP-Glo; format: biochemical
T2 construct: ICE Bioscience Inc. (assay service)
Procedure: as §3

CDK15/CycY = target: T3, CDK15/CycY (Homo sapiens, UniProt Q96Q40); test: CDK family panel, ADP-Glo; format: biochemical
T3 construct: ICE Bioscience Inc. (assay service)
Procedure: as §3

CDK3/CycE1 = target: T4, CDK3/CycE1 (Homo sapiens, UniProt Q00526); test: CDK family panel, ADP-Glo; format: biochemical
T4 construct: ICE Bioscience Inc. (assay service)
Procedure: (§4) All the kinase activity were performed using an ADP-Glo kinase assay by ICE Bioscience Inc. (Beijing, China). Kinome selectivity profiles (KINOMEscan profiling) and Kd detection were performed by Eurofins DiscoveryX Corporation (San Diego, CA, USA).

CDK18/CycY = target: T5, CDK18/CycY (Homo sapiens, UniProt Q07002); test: CDK family panel, ADP-Glo; format: biochemical
T5 construct: ICE Bioscience Inc. (assay service)
Procedure: as §4

CDK6/CycD1 = target: T6, CDK6/CycD1 (Homo sapiens, UniProt Q00534); test: CDK family panel, ADP-Glo; format: biochemical
T6 construct: ICE Bioscience Inc. (assay service)
Procedure: as §4

CDK2/CycE1 = target: T7, CDK2/CycE1 (Homo sapiens, UniProt P24941); test: CDK family panel, ADP-Glo; format: biochemical
T7 construct: ICE Bioscience Inc. (assay service)
Procedure: as §3

CDK1/CycA2 = target: T8, CDK1/CycA2 (Homo sapiens, UniProt P06493); test: CDK family panel, ADP-Glo; format: biochemical
T8 construct: ICE Bioscience Inc. (assay service)
Procedure: as §3

CDK1/CycE1 = target: T9, CDK1/CycE1 (Homo sapiens, UniProt P06493); test: CDK family panel, ADP-Glo; format: biochemical
T9 construct: ICE Bioscience Inc. (assay service)
Procedure: as §3

CDK3/CycC = target: T10, CDK3/CycC (Homo sapiens, UniProt Q00526); test: CDK family panel, ADP-Glo; format: biochemical
T10 construct: ICE Bioscience Inc. (assay service)
Procedure: as §3

CDK19/CycC = target: T11, CDK19/CycC (Homo sapiens, UniProt Q9BWU1); test: CDK family panel, ADP-Glo; format: biochemical
T11 construct: ICE Bioscience Inc. (assay service)
Procedure: as §3

TAOK3 = target: T12, TAOK3 (Homo sapiens, UniProt Q9H2K8); test: ADP-Glo assay, TAOK3; format: biochemical; details: read-out: IC50 against TAOK3
T12 construct: ICE Bioscience Inc. (assay service)

VCaP cells [2] = test: Cell apoptosis assay by flow cytometry; format: cell-based, human; details: YJZ5118 at 100 nM
Procedure: Cells were seeded in six-well plates and incubated for 24 h at 37 °C and 5% CO2. Cells were then treated with the indicated concentrations of the tested compounds for 48 h. The treated cells then were collected, centrifuged and washed twice by cold PBS. […] Cell samples were analyzed with flow cytometry (SH800S cell sorter, Sony Biotechnology).

CB-AGPN = test: Cell viability panel; format: cell-based; details: Homo sapiens, 120 h; Ewing's sarcoma cells, 5 days of treatment
Procedure: as §1

CHLA10 = test: Cell viability panel; format: cell-based; details: Homo sapiens, 120 h; Ewing's sarcoma cells, 5 days of treatment
Procedure: as §1

DU145 = test: Cell viability panel; format: cell-based; details: Homo sapiens, DU-145, 120 h; prostate cancer cells, 5 days of treatment
Procedure: as §1

MDA-MD-468 = test: Cell viability panel; format: cell-based; details: Homo sapiens, 120 h; breast cancer cells, 5 days of treatment
Procedure: as §1

MFM223 = test: Cell viability panel; format: cell-based; details: Homo sapiens, MFM-223, 120 h; breast cancer cells, 5 days of treatment
Procedure: as §1

SK-BR-3 = test: Cell viability panel; format: cell-based; details: Homo sapiens, SK-BR-3, 120 h; breast cancer cells, 5 days of treatment
Procedure: as §1

[3] = test system: normal and non-neoplastic cells; test: Cell viability panel; format: cell-based, human; details: 5 days of treatment, compared with sensitive cancer cells
Procedure: as §1

VCaP CRPC xenograft = test: In vivo efficacy, VCaP CRPC mouse model; parameters: species or system mice; details: YJZ5118 i.p., q.d., uprosertib p.o., 5x/week, 27 days, compared to vehicle
Procedure: All the animal experiments were performed under an approved animal protocol (Protocol ID: PRO00010006, PI, Arul Chinnaiyan) by the Institutional Animal Care & Use Committee of the University of Michigan. Six- to eight-week-old NSG (Jackson Laboratory) or CB17SCID female (Charles River Laboratory) mice were in a regular SPF housing room prior to cell injection. Briefly, 5 ×10^6 cells of VCaP CRPC were injected […] of NSG or CB17SCID mice, respectively. After tumor size reached approximately 200–400 mm^3, animals were subjected to drug treatment. […] Vehicle consisted of 20% PEG400, 6% Cremophor EL, and 74% PBS solution. Tumors were collected at the end of the experiment for Western blot analysis.

VCaP cells [4] = test: Washout experiment, cell growth; format: cell-based, human; details: VCaP cells treated 6 h, compound removed, 5 days in compound-free media
Procedure: (§2) The previously reported reversible inhibitor 10 was included for comparison. VCaP cells were treated with the compounds for 6 h, after which the compounds were removed, and the cells were cultured in compound-free media for 5 days.

[5] = test system: phosphorylation of RNA polymerase II at Ser2; test: Washout experiment, RNA polymerase II Ser2 phosphorylation (immunoblot); format: cell-based, human; details: VCaP cells; YJZ5118 100 nM
Procedure: as §2
Generally, after incubation with the compounds for the indicated time, the tested cells were washed by cold PBS buffer (Gibco) and lysed with RIPA buffer (ThermoFisher Scientific) supplemented with cOmplete protease inhibitor cocktail tablets (Sigma-Aldrich). The cell lysate was treated with ultrasonic for 20s, following a centrifugation of 14000 rpm at 4°C for 10 min. The protein concentration was measured by BCA protein assay (DC Protein Assay, BIO-RAD). An equal amount of protein was loaded to 4–12% Bis-Tris gels and underwent SDS-PAGE electrophoresis at 120 V for 90 min. The proteins were transferred to a nitrocellulose (NC) membrane (Thermo Scientific) and the membranes were blocked in 5% milk buffer at room temperature for 1h, followed by incubating with primary antibody at the recommended dilution at 4°C for overnight. The membranes were washed by PBST for three times and incubated with anti-rabbit or anti-mouse HRP-conjugated secondary antibody for 1h at room temperature, after which the membranes were imaged by Odyssey CLx Imager (LiCOR Biosciences).

T11 sequence (Q9BWU1 whole entry, species assumed): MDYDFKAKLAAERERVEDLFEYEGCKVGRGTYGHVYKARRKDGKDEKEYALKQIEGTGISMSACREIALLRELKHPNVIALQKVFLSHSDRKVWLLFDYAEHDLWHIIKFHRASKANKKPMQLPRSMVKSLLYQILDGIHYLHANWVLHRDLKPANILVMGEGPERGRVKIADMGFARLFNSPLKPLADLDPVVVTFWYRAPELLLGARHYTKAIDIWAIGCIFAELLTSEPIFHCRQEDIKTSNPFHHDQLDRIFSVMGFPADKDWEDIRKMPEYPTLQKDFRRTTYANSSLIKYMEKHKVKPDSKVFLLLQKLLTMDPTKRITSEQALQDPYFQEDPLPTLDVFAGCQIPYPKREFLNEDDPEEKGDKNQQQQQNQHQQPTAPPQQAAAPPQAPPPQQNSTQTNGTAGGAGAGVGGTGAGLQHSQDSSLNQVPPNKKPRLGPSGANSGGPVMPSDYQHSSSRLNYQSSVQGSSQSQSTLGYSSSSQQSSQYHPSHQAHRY
T11 sequence (P24863 whole entry partner, species assumed): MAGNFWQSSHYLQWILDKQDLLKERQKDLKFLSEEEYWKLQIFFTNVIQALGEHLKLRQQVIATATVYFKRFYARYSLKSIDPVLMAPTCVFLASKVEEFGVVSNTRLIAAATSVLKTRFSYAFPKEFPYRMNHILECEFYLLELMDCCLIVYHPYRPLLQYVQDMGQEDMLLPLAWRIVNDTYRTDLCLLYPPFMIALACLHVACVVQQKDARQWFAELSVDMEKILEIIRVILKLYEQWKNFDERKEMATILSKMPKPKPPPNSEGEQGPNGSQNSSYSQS
T8 sequence (P06493 whole entry, species assumed): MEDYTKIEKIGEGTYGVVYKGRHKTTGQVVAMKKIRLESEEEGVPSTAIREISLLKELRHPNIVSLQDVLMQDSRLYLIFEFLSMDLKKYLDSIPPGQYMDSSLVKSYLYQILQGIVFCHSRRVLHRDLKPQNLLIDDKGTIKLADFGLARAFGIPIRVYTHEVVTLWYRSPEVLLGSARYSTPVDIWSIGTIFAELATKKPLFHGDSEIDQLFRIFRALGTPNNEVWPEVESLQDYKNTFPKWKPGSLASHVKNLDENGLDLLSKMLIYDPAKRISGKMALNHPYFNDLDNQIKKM
T8 sequence (P20248 whole entry partner, species assumed): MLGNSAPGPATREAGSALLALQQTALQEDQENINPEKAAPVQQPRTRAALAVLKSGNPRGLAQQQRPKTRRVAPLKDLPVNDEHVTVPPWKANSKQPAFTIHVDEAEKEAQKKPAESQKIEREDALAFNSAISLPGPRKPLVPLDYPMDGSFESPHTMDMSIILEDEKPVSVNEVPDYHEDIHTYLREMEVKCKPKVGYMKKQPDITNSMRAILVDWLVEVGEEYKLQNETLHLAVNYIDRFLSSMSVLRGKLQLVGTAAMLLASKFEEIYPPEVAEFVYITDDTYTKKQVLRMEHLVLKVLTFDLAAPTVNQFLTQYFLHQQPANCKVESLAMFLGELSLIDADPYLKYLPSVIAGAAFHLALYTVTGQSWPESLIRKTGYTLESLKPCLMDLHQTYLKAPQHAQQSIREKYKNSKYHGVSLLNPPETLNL
T5 sequence (Q07002 whole entry, species assumed): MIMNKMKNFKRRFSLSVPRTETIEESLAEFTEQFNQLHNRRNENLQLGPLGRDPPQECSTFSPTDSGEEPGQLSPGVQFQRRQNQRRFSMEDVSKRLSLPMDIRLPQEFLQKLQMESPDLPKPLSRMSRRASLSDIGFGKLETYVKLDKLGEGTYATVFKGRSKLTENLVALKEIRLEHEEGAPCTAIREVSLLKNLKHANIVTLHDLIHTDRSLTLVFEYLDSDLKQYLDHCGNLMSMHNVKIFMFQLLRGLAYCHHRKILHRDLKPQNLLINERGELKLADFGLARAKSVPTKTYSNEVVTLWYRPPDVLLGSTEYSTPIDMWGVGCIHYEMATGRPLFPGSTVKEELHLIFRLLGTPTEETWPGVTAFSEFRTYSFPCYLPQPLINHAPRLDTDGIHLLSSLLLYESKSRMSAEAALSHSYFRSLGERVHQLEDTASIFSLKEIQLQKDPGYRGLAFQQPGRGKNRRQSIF
T5 sequence (Q8ND76 whole entry partner, species assumed): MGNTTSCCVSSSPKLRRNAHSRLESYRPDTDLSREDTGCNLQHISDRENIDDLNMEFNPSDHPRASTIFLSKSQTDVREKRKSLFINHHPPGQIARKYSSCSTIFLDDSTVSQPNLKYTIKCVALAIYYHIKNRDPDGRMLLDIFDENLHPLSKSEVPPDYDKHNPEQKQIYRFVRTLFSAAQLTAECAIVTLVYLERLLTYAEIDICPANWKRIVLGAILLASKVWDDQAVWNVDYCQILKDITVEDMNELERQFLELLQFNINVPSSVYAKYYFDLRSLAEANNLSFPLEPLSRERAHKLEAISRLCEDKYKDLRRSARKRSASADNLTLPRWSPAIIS
T6 sequence (Q00534 whole entry, species assumed): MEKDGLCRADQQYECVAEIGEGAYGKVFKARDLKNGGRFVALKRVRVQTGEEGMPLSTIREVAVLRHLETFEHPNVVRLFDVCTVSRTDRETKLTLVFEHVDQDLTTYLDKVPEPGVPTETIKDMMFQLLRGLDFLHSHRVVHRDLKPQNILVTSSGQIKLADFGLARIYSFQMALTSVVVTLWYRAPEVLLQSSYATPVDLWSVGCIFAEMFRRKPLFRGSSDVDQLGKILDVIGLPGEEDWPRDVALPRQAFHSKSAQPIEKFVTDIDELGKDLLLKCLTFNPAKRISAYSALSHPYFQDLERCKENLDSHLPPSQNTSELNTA
T6 sequence (P24385 whole entry partner, species assumed): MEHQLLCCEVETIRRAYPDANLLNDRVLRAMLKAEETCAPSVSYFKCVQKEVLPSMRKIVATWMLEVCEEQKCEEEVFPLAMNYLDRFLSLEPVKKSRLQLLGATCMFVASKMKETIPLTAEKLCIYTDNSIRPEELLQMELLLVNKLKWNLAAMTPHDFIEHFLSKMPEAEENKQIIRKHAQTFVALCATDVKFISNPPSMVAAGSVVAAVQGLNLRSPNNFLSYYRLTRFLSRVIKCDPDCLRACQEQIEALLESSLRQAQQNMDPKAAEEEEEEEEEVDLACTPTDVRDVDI
T1 sequence (P50750 whole entry, species assumed): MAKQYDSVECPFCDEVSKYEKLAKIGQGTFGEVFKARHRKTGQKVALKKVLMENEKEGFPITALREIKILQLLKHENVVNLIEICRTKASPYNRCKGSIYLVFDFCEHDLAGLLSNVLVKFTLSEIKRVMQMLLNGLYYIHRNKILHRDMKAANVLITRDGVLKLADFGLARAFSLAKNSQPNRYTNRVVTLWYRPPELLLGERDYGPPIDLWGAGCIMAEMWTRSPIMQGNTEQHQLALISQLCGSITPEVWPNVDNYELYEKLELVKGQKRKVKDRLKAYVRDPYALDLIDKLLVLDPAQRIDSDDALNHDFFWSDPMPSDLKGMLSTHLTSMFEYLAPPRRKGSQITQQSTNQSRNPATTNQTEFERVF
T1 sequence (O60563 whole entry partner, species assumed): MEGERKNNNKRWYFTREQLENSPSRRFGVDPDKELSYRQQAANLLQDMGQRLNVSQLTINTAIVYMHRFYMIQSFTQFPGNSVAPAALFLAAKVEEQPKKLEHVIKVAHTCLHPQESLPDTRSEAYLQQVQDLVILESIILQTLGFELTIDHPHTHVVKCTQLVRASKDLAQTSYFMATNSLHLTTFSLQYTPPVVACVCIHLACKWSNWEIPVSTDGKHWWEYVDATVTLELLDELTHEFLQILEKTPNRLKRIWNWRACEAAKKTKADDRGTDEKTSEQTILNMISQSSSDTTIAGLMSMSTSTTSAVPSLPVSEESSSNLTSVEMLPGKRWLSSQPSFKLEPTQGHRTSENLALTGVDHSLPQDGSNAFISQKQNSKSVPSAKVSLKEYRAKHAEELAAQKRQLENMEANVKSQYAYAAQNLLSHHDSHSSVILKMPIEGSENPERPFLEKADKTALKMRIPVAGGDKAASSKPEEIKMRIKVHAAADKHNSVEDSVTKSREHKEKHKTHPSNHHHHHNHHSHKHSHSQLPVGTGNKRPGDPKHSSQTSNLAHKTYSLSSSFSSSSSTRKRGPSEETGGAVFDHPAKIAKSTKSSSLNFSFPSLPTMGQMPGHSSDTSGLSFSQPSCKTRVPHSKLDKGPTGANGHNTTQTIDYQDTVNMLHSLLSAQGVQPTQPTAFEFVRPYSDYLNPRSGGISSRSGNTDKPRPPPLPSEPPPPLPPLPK
T2 sequence (P50750 whole entry, species assumed): as the sequence (P50750 whole entry, species assumed) above
T2 sequence (O75909 whole entry partner, species assumed): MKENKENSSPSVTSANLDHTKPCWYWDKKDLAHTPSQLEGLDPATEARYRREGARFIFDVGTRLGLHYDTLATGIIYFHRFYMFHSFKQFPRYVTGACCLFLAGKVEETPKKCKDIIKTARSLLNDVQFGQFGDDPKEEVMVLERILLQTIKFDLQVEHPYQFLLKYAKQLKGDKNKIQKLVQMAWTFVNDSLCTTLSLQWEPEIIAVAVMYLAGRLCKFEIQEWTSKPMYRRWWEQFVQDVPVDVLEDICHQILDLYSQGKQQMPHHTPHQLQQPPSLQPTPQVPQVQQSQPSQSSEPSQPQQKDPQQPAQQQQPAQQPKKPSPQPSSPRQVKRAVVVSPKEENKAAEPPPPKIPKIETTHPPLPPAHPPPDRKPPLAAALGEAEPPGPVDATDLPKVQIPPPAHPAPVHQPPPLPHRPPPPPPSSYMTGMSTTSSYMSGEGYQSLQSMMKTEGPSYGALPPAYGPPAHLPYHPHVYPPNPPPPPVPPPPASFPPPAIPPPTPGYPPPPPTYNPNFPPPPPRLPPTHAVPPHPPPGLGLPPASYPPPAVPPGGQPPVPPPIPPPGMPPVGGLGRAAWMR

IC50 ([1]; Homo sapiens, VCaP, 120 h): < 40 nM | IC50 ([1]; listed as 14k (YJZ5118)): 23.7 nM | IC50 (CDK9/CycT1): 4910 nM | IC50 (CDK9/CycK): 7160 nM | IC50 (CDK15/CycY): > 10000 nM | IC50 (CDK3/CycE1): > 10000 nM | IC50 (CDK18/CycY): > 10000 nM | IC50 (CDK6/CycD1): 4480 nM | IC50 (CDK2/CycE1): > 10000 nM | IC50 (CDK1/CycA2): > 10000 nM | IC50 (CDK1/CycE1): > 10000 nM | IC50 (CDK3/CycC): > 10000 nM | IC50 (CDK19/CycC): > 10000 nM | IC50 (TAOK3): > 10 µM | IC50 (DU145): < 0.04 µM | IC50 (SK-BR-3): < 0.04 µM
Compound: C=CC(=O)Nc1cc(N(C(=O)NCc2ccccc2)[C@H]2CC[C@H](Nc3ccc(C#N)cn3)CC2)ccc1N1CCC(N(C)C)CC1 [YJZ5118, N-(5-(3-benzyl-1-((1r,4r)-4-((5-cyanopyridin-2-yl)amino)cyclohexyl)ureido)-2-(4-(dimethylamino)piperidin-1-yl)phenyl)acrylamide]
apoptosis rate (VCaP cells [2]): 28.5% | IC50 (CB-AGPN): < 0.04 µM | IC50 (CHLA10): < 0.04 µM | IC50 (MDA-MD-468): < 0.04 µM | IC50 (MFM223): < 0.04 µM | sensitivity of normal and non-neoplastic cells [3]: much lower sensitive | tumor growth (VCaP CRPC xenograft): significant reduction in tumor growth | cell growth inhibitory effect after washout (VCaP cells [4]): maintained potent antiproliferative activity | RNA polymerase II Ser2 phosphorylation after washout [5]: complete loss of phosphorylation observed at 15 h after washout
